According to US12545659B2, “IRAK degraders and uses thereof” (Kymera Therapeutics, Inc., priority 2019, dated 2026):

Target: T1, IRAK4 (Homo sapiens, UniProt Q9NWZ3)
T1 construct: endogenous in cells; host or cells: OCI-LY10
T1 sequence (Q9NWZ3 1-460): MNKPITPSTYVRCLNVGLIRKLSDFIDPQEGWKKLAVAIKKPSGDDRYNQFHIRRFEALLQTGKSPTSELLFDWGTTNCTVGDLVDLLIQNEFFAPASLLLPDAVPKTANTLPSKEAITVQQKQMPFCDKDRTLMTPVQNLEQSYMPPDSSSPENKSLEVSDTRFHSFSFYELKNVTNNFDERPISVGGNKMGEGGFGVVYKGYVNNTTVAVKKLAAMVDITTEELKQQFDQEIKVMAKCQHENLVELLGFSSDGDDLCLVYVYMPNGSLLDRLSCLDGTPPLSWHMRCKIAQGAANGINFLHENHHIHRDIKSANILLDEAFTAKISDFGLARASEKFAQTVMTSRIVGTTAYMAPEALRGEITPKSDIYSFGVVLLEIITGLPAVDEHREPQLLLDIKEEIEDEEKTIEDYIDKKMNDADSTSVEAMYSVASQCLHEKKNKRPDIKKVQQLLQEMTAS
Test: IRAK4 MSD Degradation in OCI-LY10
Assay type: cell-based
Details: OCI-LY10 cells, 4 hrs incubation, read-out: IRAK4 degradation in OCI-LY10 at 4 hrs: DC50
Protocol: Degradation of IRAK4 in OCI-LY10 was quantitatively measured using Meso Scale Discovery technology. […] Compounds were then added to the assay plates with a final top concentration of 1 to 10 μM in a 1:3 dilution series with total of 8 doses. The assay plates were then incubated for 4 to 24 hours at 37° C. under 5% C02. […] To prepare MSD assay plates (Meso Scale Discovery Catalog number L15XA-3), the plates were coated with […] capture antibody (mouse Anti-IRAK4 antibody [2H9], ab119942) in PBS, at 40 μL/well. […] Cell lysates were then added to MSD assay plates and the plates were incubated at room temperature for 1 hour. The plates were then washed 3 times with 150 μL/well TBST buffer and 25 μL/well primary detection antibody (rabbit Anti-IRAK4 antibody [Y279], from Abcam. Catalog number ab32511, 1 μg/mL). The assay plates were then incubated at room temperature for 1 hour, washed 3 times with 150 μL/well TBST buffer and 25 μL/well secondary detection antibody, SULFO-TAG anti-rabbit antibody were added (anti rabbit antibody from Meso Scale Discovery, Catalog number R32AB-1, 1 μg/mL). The assay plates were then incubated at room temperature for 1 hour, washed 3 times with 150 μL/well TBST buffer, and 150 μL/well MSD reading buffer (Meso Scale Discovery catalog number R92TC-2) was added. The plates were then analyzed by a MSD reader (Meso Scale Discovery, Model Quick Plex SQ 120). The data was then analyzed by software Prism 7.0 from GraphPad and the dose-depended IRAK4 degradation were fit using a three-parameter logistic equation to calculate DC50.
The letter codes for IRAK4 […] include: A (<0.05 μM); B (0.05-0.1 μM); C (0.1-0.5 μM); D (0.5-1.0 μM); and E (>1.0 μM).

SMILES	DC50 [nM]
COc1cc2nn([C@H]3CC[C@H](CN4CC(c5ccc6c(c5)n(C)c(=O)n6C5CCC(=O)NC5=O)C4)CC3)cc2cc1NC(=O)c1cccc(C(F)(F)F)n1 (stereo partly shown) [I-260]	< 50
CN(C[C@H]1CC[C@H](n2cc3cc(NC(=O)c4cnn5cccnc45)c(N4CCOCC4)cc3n2)CC1)C1CCN(Cc2cccc3c2n(C)c(=O)n3C2CCC(=O)NC2=O)CC1 (stereo partly shown) [I-116]	< 50
Cn1c(=O)n(C2CCC(=O)NC2=O)c2cccc(C3CN(C[C@H]4CC[C@H](n5cc6cc(NC(=O)c7cccc(C(C)(C)F)n7)c(C(F)F)cc6n5)CC4)C3)c21 (stereo partly shown) [I-113]	50 to 100

Results, then the compound that gave them:

DC50 [nM]	SMILES
50 to 100	COc1cc2nn([C@H]3CC[C@H](CN4CCC(c5cccc6c5n(C)c(=O)n6C5CCC(=O)NC5=O)CC4)CC3)cc2cc1NC(=O)c1cccc(C(C)(C)F)n1 (stereo partly shown) [I-114]
< 50	Cn1c(=O)n(C2CCC(=O)NC2=O)c2cccc(C[C@H]3CC[C@H](N(C)C[C@H]4CC[C@H](n5cc6cc(NC(=O)c7cccc(C(F)(F)F)n7)c(C(C)(C)O)cc6n5)CC4)CC3)c21 (stereo partly shown) [I-62]
< 50	COc1cc2nn([C@H]3CC[C@H](CN4CCC(c5cccc6c5n(C)c(=O)n6C5CCC(=O)NC5=O)CC4)CC3)cc2cc1NC(=O)c1cccc(C(C)(C)O)n1 (stereo partly shown) [I-258]
< 50	Cn1c(=O)n(C2CCC(=O)NC2=O)c2cccc(OCC3CCN(C[C@H]4CC[C@H](n5cc6cc(NC(=O)c7cccc(C(F)(F)F)n7)c(C(C)(C)O)cc6n5)CC4)CC3)c21 (stereo partly shown) [I-132]
< 50	Cn1c(=O)n(C2CCC(=O)NC2=O)c2cccc([C@H]3CC[C@H](N(C)C[C@H]4CC[C@H](n5cc6cc(NC(=O)c7cccc(C(F)(F)F)n7)c(C(F)F)cc6n5)CC4)CC3)c21 (single isomer, unassigned) [I-164, N-[6-(difluoromethyl)-2-[4-[[[4-[1-(2,6-dioxo-3-piperidyl)-3-methyl-2-oxo-benzimidazol-4-yl]cyclohexyl]-methyl-amino]methyl]cyclohexyl]indazol-5-yl]-6-(trifluoromethyl)pyridine-2-carboxamide]
< 50	CN(C[C@H]1CC[C@H](n2cc3cc(NC(=O)c4cccc(C(F)(F)F)n4)c(C(C)(C)O)cc3n2)CC1)C1CCN(c2ccc3c(c2)n(C)c(=O)n3C2CCC(=O)NC2=O)CC1 (stereo partly shown) [I-75]
< 50	COc1cc2nn([C@H]3CC[C@H](CN(C)C4CCN(c5ccc6c(c5)n(C)c(=O)n6C5CCC(=O)NC5=O)CC4)CC3)cc2cc1NC(=O)c1cccc(C(F)(F)F)n1 (stereo partly shown) [I-107]
< 50	CN(C[C@H]1CC[C@H](n2cc3cc(NC(=O)c4cccc(C(F)(F)F)n4)c(N4CCOCC4)cc3n2)CC1)C1CCN(c2cccc3c2n(C)c(=O)n3C2CCC(=O)NC2=O)CC1 (stereo partly shown) [I-178]
< 50	CN(C(=O)[C@H]1CC[C@H](n2cc3cc(NC(=O)c4cccc(C(F)(F)F)n4)c(C(C)(C)O)cc3n2)CC1)C1CCN(Cc2cccc3c2n(C)c(=O)n3C2CCC(=O)NC2=O)CC1 (stereo partly shown) [I-43]
50 to 100	Cn1c(=O)n(C2CCC(=O)NC2=O)c2cccc(CN3CC4(C3)CN(C(=O)[C@H]3CC[C@H](n5cc6cc(NC(=O)c7cccc(C(F)(F)F)n7)c(C(C)(C)O)cc6n5)CC3)C4)c21 (stereo partly shown) [I-45, N-[2-[4-[6-[[1-(2,6-dioxo-3-piperidyl)-3-methyl-2-oxo-benzimidazol-4-yl]methyl]-2,6-diazaspiro[3.3]heptane-2-carbonyl]cyclohexyl]-6-(1-hydroxy-1-methyl-ethyl)indazol-5-yl]-6-(trifluoromethyl)pyridine-2-carboxamide]
50 to 100	Cn1c(=O)n(C2CCC(=O)NC2=O)c2cccc(CCCC3CCN(C[C@H]4CC[C@H](n5cc6cc(NC(=O)c7cccc(C(F)(F)F)n7)c(C(F)F)cc6n5)CC4)CC3)c21 (stereo partly shown) [I-300]
50 to 100	COc1cc2nn([C@H]3CC[C@H](CN4CCC5(CC4)CC(Cc4cccc6c4n(C)c(=O)n6C4CCC(=O)NC4=O)C5)CC3)cc2cc1NC(=O)c1cccc(C(F)(F)F)n1 (stereo partly shown) [I-109]
< 50	CN(C[C@H]1CC[C@H](n2cc3cc(NC(=O)c4cccc(C(F)(F)F)n4)c(C(C)(C)O)cc3n2)CC1)C1CCC2(CC1)CC(Cc1cccc3c1n(C)c(=O)n3C1CCC(=O)NC1=O)C2 (stereo partly shown) [I-74]
< 50	Cn1c(=O)n(C2CCC(=O)NC2=O)c2cccc(CN3CC4(CCN(C[C@H]5CC[C@H](n6cc7cc(NC(=O)c8cccc(C(F)(F)F)n8)c(C(C)(C)O)cc7n6)CC5)CC4)C3)c21 (stereo partly shown) [I-57]

Same assay, conditions: OCI-LY10 cells, 24 hrs incubation, read-out: IRAK4 degradation in OCI-LY10 at 24 hrs: DC50

SMILES	DC50 [nM]
CN[C@@H](C)C(=O)N[C@H](C(=O)N1Cc2cc(OCCCC3CC4(CCN(C[C@H]5CC[C@H](n6cc7cc(NC(=O)c8cccc(C(F)(F)F)n8)c(OC)cc7n6)CC5)CC4)C3)ccc2C[C@H]1C(=O)N[C@@H]1CCCc2ccccc21)C(C)(C)C [I-186, (3S)-2-[(2S)-3,3-Dimethyl-2-[[(2S)-2-(methylamino)propanoyl]amino]butanoyl]-7-[3-[7-[[4-[6-methoxy-5-[[6-(trifluoromethyl)pyridine-2-carbonyl]amino]indazol-2-yl]cyclohexyl]methyl]-7-azaspiro[3.5]nonan-2-yl]propoxy]-N-[(1R)-tetralin-1-yl]-3,4-dihydro-1H-isoquinoline-3-carboxamide]	500 to 1000
COc1cc2nn([C@H]3CC[C@H](CN4CCC5(CC4)CC(CCNc4cccc6c4C(=O)N(C4CCC(=O)NC4=O)C6=O)C5)CC3)cc2cc1NC(=O)c1cccc(C(C)(F)F)n1 (single isomer, unassigned) [I-129]	50 to 100
COc1cc2nn([C@H]3CC[C@H](CN(C)C4CCC5(CC4)CC(Nc4cccc6c4C(=O)N(C4CCC(=O)NC4=O)C6=O)C5)CC3)cc2cc1NC(=O)c1cccc(C(F)(F)F)n1 (stereo partly shown) [I-223]	50 to 100
COc1cc2nn([C@H]3CC[C@H](CN(C)CCCO[C@H]4C[C@H](Nc5ccc6c(c5)C(=O)N(C5CCC(=O)NC5=O)C6=O)C4)CC3)cc2cc1NC(=O)c1cccc(C(F)(F)F)n1 (stereo partly shown) [I-77]	50 to 100
COc1c(NC(=O)c2cccc(C(C)(F)F)n2)cc2cn([C@H]3CC[C@H](CN4CC5(CC(CCNc6cccc7c6C(=O)N(C6CCC(=O)NC6=O)C7=O)C5)C4)CC3)nc2c1C (stereo partly shown) [I-188]	50 to 100
CC(C)(O)c1cc2nn([C@H]3CC[C@H](CN4CCC(COCCCNc5cccc6c5C(=O)N(C5CCC(=O)NC5=O)C6=O)CC4)CC3)cc2cc1NC(=O)c1cccc(C(C)(C)F)n1 (stereo partly shown) [I-59]	50 to 100
COc1cc2nn([C@H]3CC[C@H](CN4CCC5(CC4)CC(CNc4cccc6c4C(=O)N([C@@H]4CCC(=O)NC4=O)C6=O)C5)CC3)cc2cc1NC(=O)c1cccc(C(F)(F)F)n1 [I-130, N-[2-[4-[[2-[[[2-[(3R)-2,6-dioxo-3-piperidyl]-1,3-dioxo-isoindolin-4-yl]amino]methyl]-7-azaspiro[3.5]nonan-7-yl]methyl]cyclohexyl]-6-methoxy-indazol-5-yl]-6-(trifluoromethyl)pyridine-2-carboxamide]	50 to 100
CC(C)(O)c1cc2nn([C@H]3CC[C@H](CN4CCC5(CC4)CC(Nc4cccc6c4C(=O)N(C4CCC(=O)NC4=O)C6=O)C5)CC3)cc2cc1NC(=O)c1cccc(S(F)(F)(F)(F)F)c1 (stereo partly shown) [I-123]	50 to 100
COc1cc2nn([C@H]3CC[C@H](CN4CCC5(CC4)CC(CCNc4cccc6c4C(=O)N(C4CCC(=O)NC4=O)C6=O)C5)CC3)cc2cc1NC(=O)[C@@H]1CCCCN1 (stereo partly shown) [I-143]	500 to 1000
CC(C)(O)c1cc2nn([C@H]3CC[C@H](CN4CCC5(CC4)CC(CNc4cccc6c4C(=O)N(C4CCC(=O)NC4=O)C6=O)C5)CC3)cc2cc1NC(=O)c1cccc(C(F)(F)F)n1 (stereo partly shown) [I-42]	< 50
O=C1CCC(N2C(=O)c3cccc(NCCC4CC5(CCN(C[C@H]6CC[C@H](n7cc8cc(NC(=O)c9cccc(C(F)(F)F)n9)c(OC(F)(F)F)cc8n7)CC6)CC5)C4)c3C2=O)C(=O)N1 (stereo partly shown) [I-141]	50 to 100
COc1cc2nn([C@H]3CC[C@H](CN(C)CCCN4CCOC(CNc5cccc6c5C(=O)N(C5CCC(=O)NC5=O)C6=O)C4)CC3)cc2cc1NC(=O)c1cccc(C(C)(F)F)n1 (stereo partly shown) [I-91]	50 to 100

Results, then the compound that gave them:

DC50 [nM]	SMILES
< 50	CN(C[C@H]1CC[C@H](n2cc3cc(NC(=O)c4cccc(C(F)(F)F)n4)c(C(C)(C)O)cc3n2)CC1)C1CCC2(CC1)CC(Nc1cccc3c1C(=O)N(C1CCC(=O)NC1=O)C3=O)C2 (stereo partly shown) [I-238]
50 to 100	COc1cc2nn([C@H]3CC[C@H](CN(C)[C@H]4CC[C@H](CNc5cccc6c5C(=O)N(C5CCC(=O)NC5=O)C6=O)CC4)CC3)cc2cc1NC(=O)c1cccc(C(F)(F)F)n1 (stereo partly shown) [I-210]
